Literature values in US7476743B2, “Compounds, compositions, and methods” (Cytokinetics, Inc., priority 2002, dated 2009).

System: A549 cells
Settings: data provided by National Cancer Institute

SMILES	GI50 [nM]
COc1cccc2c1C(=O)c1c(O)c3c(c(O)c1C2=O)C[C@@](O)(C(=O)CO)C[C@@H]3O[C@H]1C[C@H](N)[C@H](O)[C@H](C)O1 [doxorubicin]	63
CC(=O)O[C@H]1C(=O)[C@@]2(C)[C@H]([C@H](OC(=O)c3ccccc3)[C@]3(O)C[C@H](OC(=O)[C@H](O)[C@@H](NC(=O)c4ccccc4)c4ccccc4)C(C)=C1C3(C)C)[C@]1(OC(C)=O)CO[C@@H]1C[C@@H]2O [paclitaxel]	4
NC(=O)NO [hydroxyurea]	500000
O=c1[nH]cc(F)c(=O)[nH]1 [5-fluorouracil]	1000
